# Publication PMC5679103 (Journal of natural products, 2017)
# Assays:
# P. falciparum Dd2 strain = assay: Antiplasmodial 72 h growth assay; type: cell-based, Plasmodium falciparum; settings: relative to trichospirolide B (2)
# Stability on storage = type: physicochemical; settings: storage at −23 °C
SMILES,Fold higher antiplasmodial potency than trichospirolide B (P. falciparum Dd2 strain),Stability on storage (Stability on storage)
"C=C(C)C(=O)O[C@H]1C/C(C)=C\C(=O)/C=C(C)/C=C2/OC(=O)C(COC(C)=O)=C21 [Compound 1, 1(10)Z,3E,5E,7(12)Z-(8S)-13-acetoxy-8-methacryloyloxy-2-oxogermacra-1,3,5,7-tetraen-6,12-olide]",25 fold,
"C=C(C)C(=O)O[C@@H]1C/C(C)=C\[C@@]2(O)C=C(C)[C@H](O2)[C@H]2OC(=O)C(COC(C)=O)=C12 [Compound 4, 1(10)Z,3Z,7(11)Z-(2S,5S,6S,8R)-13-acetoxy-2,5-epoxy-2-hydroxy-8-O-methacryloyloxygermacra-1(10),3,7(11)-trien-6,12-olide]",,moderately unstable
"C=C(C)C(=O)O[C@H]1C/C(C)=C\C(=O)C[C@@]2(C)O[C@H]2[C@H]2OC(=O)C(COC(C)=O)=C12 [Compound 3, 1(10)Z,7(11)Z-(4R,5S,6S,8S)-13-acetoxy-4,5-epoxy-8-methacryloyloxy-2-oxogermacra-1,7-dien-6,12-olide]",3 fold,
